Reference: patent US20110002944A1, “Compositions and Methods to Promote Neural Cell Growth” (The Johns Hopkins University, priority 2006, published 2011)

Experiments:
β1-integrin = biological target: T1, β1-integrin (Rattus norvegicus, UniProt P49134); experiment: Co-immunoprecipitation of MAG-Fc and β1-integrin in primary hippocampal neurons; type: binding; settings: echistatin 100 nM; primary hippocampal cultures treated with MAG-Fc
T1 construct: endogenous in cells; host or cells: primary hippocampal neurons (E18, 5 days after plating)
T1 sequence (P49134 21-799): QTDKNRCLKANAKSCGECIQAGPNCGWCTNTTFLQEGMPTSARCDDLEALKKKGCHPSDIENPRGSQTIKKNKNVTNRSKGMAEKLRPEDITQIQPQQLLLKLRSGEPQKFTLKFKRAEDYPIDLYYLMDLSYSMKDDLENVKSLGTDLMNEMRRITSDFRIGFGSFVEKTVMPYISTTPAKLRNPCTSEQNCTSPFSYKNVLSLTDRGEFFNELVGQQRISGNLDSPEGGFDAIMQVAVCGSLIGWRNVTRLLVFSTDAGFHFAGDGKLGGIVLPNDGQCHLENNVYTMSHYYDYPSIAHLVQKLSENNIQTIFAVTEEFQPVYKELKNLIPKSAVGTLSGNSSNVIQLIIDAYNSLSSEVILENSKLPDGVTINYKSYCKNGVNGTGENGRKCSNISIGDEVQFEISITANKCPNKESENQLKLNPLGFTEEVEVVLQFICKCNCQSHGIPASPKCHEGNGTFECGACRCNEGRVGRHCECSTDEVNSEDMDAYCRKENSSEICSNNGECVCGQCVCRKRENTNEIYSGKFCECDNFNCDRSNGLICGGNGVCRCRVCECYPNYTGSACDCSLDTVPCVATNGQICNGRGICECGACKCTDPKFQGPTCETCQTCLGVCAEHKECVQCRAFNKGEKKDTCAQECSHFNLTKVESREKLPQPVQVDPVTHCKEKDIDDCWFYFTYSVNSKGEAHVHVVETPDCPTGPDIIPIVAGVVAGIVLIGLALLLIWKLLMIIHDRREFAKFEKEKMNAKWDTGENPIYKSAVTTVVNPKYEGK
Method: To determine whether β1-integrin interacts with myelin associated glycoprotein (MAG), cultured primary hippocampal neurons were treated with recombinant MAG consisting of the MAG extracellular domain fused to human Fc (MAG-Fc; see Experimental Procedures), a fusion protein previously shown to potently regulate neurite outgrowth and induce growth cone turning responses (Domeniconi et al., 2002; Henley et al., 2004; Liu et al., 2002; McKerracher et al., 1994; Shim et al., 2005; Song et al., 1998).
(§1) Hippocampal neurons were isolated from embryonic and postnatal rats, or wild-type and NgR knockout mice (Zheng et al., 2005) as previously described (Song et al., 2002a; Song et al., 2002b). Similarly, cerebellar neurons were isolated from P5 rat cerebellum (Xiang et al., 2002). They were cultured on poly-L-lysine coated plates or coverslips as previously described (Song et al., 2002a; Song et al., 2002b). For biochemical analysis, embryonic day 18 (E18) neurons were treated with the agent AraC to eliminate dividing astrocytes and used at 5 days after plating as previously described (Song et al., 2002a; Song et al., 2002b). For growth cone turning assay, neurons were used between 2-3 days after plating. […]

[1] = tested on: axonal growth cones of P5 rat hippocampal neurons; experiment: Growth cone turning assay in a MAG gradient, P5 hippocampal neurons; type: cell-based
Method: To examine the functional role of β1-integrin in transducing MAG signaling in neuronal growth cones, growth cone turning assays were performed using rat hippocampal neurons. Growth cone turning assays are well-known and described in the art, for example by Song et al., 1998; Xiang et al., 2002; see also Experimental Procedures.
as §1
Microscopic gradients of recombinant MAG (150 μg/ml in the pipette) and OMgp (5 μg/ml in the pipette) were produced as previously described (Lohof et al., 1992; Song et al., 1998; Xiang et al., 2002). […] Statistical significance was assessed using ANOVA and accepted if p<0.01. […]

[2] = tested on: axonal growth cones of rat P5 hippocampal neurons; experiment: Growth cone turning assay in an OMgp gradient, P5 hippocampal neurons; type: cell-based; settings: for growth cone turning response to a gradient of the protein: 5 μg/ml in the pipette
Description: Three major myelin-associated inhibitory factors, Nogo-66, MAG and OMgp, are known to bind the common NgR protein, and may utilize the same signal transduction pathway to inhibit axonal extension (Domeniconi et al., 2002; Fournier et al., 2001; Liu et al., 2002; Wang et al., 2002b). Therefore, whether β1-integrin also mediates growth cone responses to other myelin-associated inhibitors was next considered. […] Thus, β1-integrin appears to specifically mediate acute axonal growth cone turning induced by MAG, but not by OMgp.
Hippocampal neurons were isolated from embryonic and postnatal rats, or wild-type and NgR knockout mice (Zheng et al., 2005) as previously described (Song et al., 2002a; Song et al., 2002b). Similarly, cerebellar neurons were isolated from P5 rat cerebellum (Xiang et al., 2002). They were cultured on poly-L-lysine coated plates or coverslips as previously described (Song et al., 2002a; Song et al., 2002b). For biochemical analysis, embryonic day 18 (E18) neurons were treated with the agent AraC to eliminate dividing astrocytes and used at 5 days after plating as previously described (Song et al., 2002a; Song et al., 2002b). For growth cone turning assay, neurons were used between 2-3 days after plating. PI-PLC (1 or 2 units/ml) (Wang et al., 2002b), Ha2/5 (1 μg/ml) or echistatin (100 nM) (Gan et al., 1988) were added for 30 mins prior to and were present during the biochemical analysis or the growth cone turning assay.
Microscopic gradients of recombinant MAG (150 μg/ml in the pipette) and OMgp (5 μg/ml in the pipette) were produced as previously described (Lohof et al., 1992; Song et al., 1998; Xiang et al., 2002). Axons were identified as the longest neurite in these cultures at the stage 2-3 of hippocampal neurons as previously described (Dotti et al., 1988). Growth cone assays were carried out at room temperature for 30 min. […] Statistical significance was assessed using ANOVA and accepted if p<0.01.

FAK = experiment: MAG-induced FAK tyrosine phosphorylation in hippocampal neurons (IP anti-FAK, immunoblot); type: cell-based, rat; settings: echistatin 100 nM
Method: The question was next asked how β1-integrin signaling transduces MAG-induced neuronal responses. Focal adhesion kinase (FAK) is a major mediator of integrin-dependent signaling in many contexts, including cell migration and axon guidance (Nakamoto et al., 2004; Nikolopoulos and Gianotti, 2005; Xie and Tsai, 2004). […] MAG-induced FAK phosphorylation was abolished in the presence of echistatin (100 nM) or Ha2/5 ([…]) (FIG. 6B). […] The specific FAK tyrosine residues that become phosphorylated upon MAG stimulation in hippocampal neurons were next examined. […] Similar β1-integrin-dependent FAK phosphorylation of these tyrosine residues was also found in embryonic cortical neurons treated with MAG (data not shown).
as §1, with “2002b).” for “2002b). For growth cone turning assay, neurons were used between 2-3 days after plating.”

echistatin
association between MAG and β1-integrin (co-immunoprecipitation) (β1-integrin): attenuated | effect on MAG-induced growth cone repulsion ([1]; 100 nM echistatin, MAG 150 μg/ml in the pipette): completely abolished | effect on OMgp-induced growth cone repulsion ([2]; echistatin 100 nM, OMgp 5 μg/ml in the pipette): still exhibited significant repulsion | effect on MAG-induced FAK phosphorylation (FAK): abolished

B1: MAG-HI: heat-inactivated MAG (protein, UniProt P20916 20-626, looked up)
Myelin-associated glycoprotein: GHWGAWMPSSISAFEGTCVSIPCRFDFPDELRPAVVHGVWYFNSPYPKNYPPVVFKSRTQVVHESFQGRSRLLGDLGLRNCTLLLSNVSPELGGKYYFRGDLGGYNQYTFSEHSVLDIVNTPNIVVPPEVVAGTEVEVSCMVPDNCPELRPELSWLGHEGLGEPAVLGRLREDEGTWVQVSLLHFVPTREANGHRLGCQASFPNTTLQFEGYASMDVKYPPVIVEMNSSVEAIEGSHVSLLCGADSNPPPLLTWMRDGTVLREAVAESLLLELEEVTPAEDGVYACLAENAYGQDNRTVGLSVMYAPWKPTVNGTMVAVEGETVSILCSTQSNPDPILTIFKEKQILSTVIYESELQLELPAVSPEDDGEYWCVAENQYGQRATAFNLSVEFAPVLLLESHCAAARDTVQCLCVVKSNPEPSVAFELPSRNVTVNESEREFVYSERSGLVLTSILTLRGQAQAPPRVICTARNLYGAKSLELPFQGAHRLMWAKIGPVGAVVAFAILIAIVCYITQTRRKKNVTESPSFSAGDNPPVLFSSDFRISGAPEKYESERRLGSERRLLGLRGEPPELDLSYSHSDLGKRPTKDSYTLTEELAEYAEIRVK
modifications: heat-inactivated
growth cone turning response to a gradient of the protein ([1]; 150 μg/ml in the pipette, 30 min): no bias in the direction of axonal extension

B2: OMgp: recombinant oligodendrocyte-myelin glycoprotein (protein, UniProt P23515 25-417, looked up)
Oligodendrocyte-myelin …: ICPLQCICTERHRHVDCSGRNLSTLPSGLQENIIHLNLSYNHFTDLHNQLTQYTNLRTLDISNNRLESLPAHLPRSLWNMSAANNNIKLLDKSDTAYQWNLKYLDVSKNMLEKVVLIKNTLRSLEVLNLSSNKLWTVPTNMPSKLHIVDLSNNSLTQILPGTLINLTNLTHLYLHNNKFTFIPDQSFDQLFQLQEITLYNNRWSCDHKQNITYLLKWMMETKAHVIGTPCSTQISSLKEHNMYPTPSGFTSSLFTVSGMQTVDTINSLSVVTQPKVTKIPKQYRTKETTFGATLSKDTTFTSTDKAFVPYPEDTSTETINSHEAAAATLTIHLQDGMVTNTSLTSSTKSSPTPMTLSITSGMPNNFSEMPQQSTTLNLWREETTTNVKTPLPS
growth cone turning response to a gradient of the protein [2]: significant repulsive turning responses

B3: heat-inactivated Omgp: heat-inactivated OMgp (protein, UniProt P23515 25-417, looked up)
Oligodendrocyte-myelin …: ICPLQCICTERHRHVDCSGRNLSTLPSGLQENIIHLNLSYNHFTDLHNQLTQYTNLRTLDISNNRLESLPAHLPRSLWNMSAANNNIKLLDKSDTAYQWNLKYLDVSKNMLEKVVLIKNTLRSLEVLNLSSNKLWTVPTNMPSKLHIVDLSNNSLTQILPGTLINLTNLTHLYLHNNKFTFIPDQSFDQLFQLQEITLYNNRWSCDHKQNITYLLKWMMETKAHVIGTPCSTQISSLKEHNMYPTPSGFTSSLFTVSGMQTVDTINSLSVVTQPKVTKIPKQYRTKETTFGATLSKDTTFTSTDKAFVPYPEDTSTETINSHEAAAATLTIHLQDGMVTNTSLTSSTKSSPTPMTLSITSGMPNNFSEMPQQSTTLNLWREETTTNVKTPLPS
modifications: heat-inactivated
growth cone turning response to a gradient of the protein [2]: not
